Data as given in USRE48461E1, “Modulation of androgen receptor expression” (Ionis Pharmaceuticals, Inc., priority 2012, dated 2021).
Oligonucleotides are written 5' to 3', each unit as a sugar letter and its base; * is a phosphorothioate linkage, no mark a phosphodiester; rarer units and linkages stand in square brackets, end groups in braces. Plain capitals give the bases only. e = 2'-O-(2-methoxyethyl) (MOE); k = constrained ethyl (cEt); [5mC] = 5-methylcytosine; d = 2'-deoxy (DNA)

Assays:
AR mRNA [1] = test: Antisense inhibition of human AR in HuVEC cells, single concentration (electroporation, qRT-PCR RTS3559); assay type: cell-based
Outline: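 HuVEC cells electroporated with antisense oligonucleotides at a single concentration. AR mRNA quantified by qRT-PCR using human primer-probe set RTS3559 and normalised to total RNA content by RIBOGREEN.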

AR mRNA [2] = test: Dose-dependent antisense inhibition of human AR in HuVEC cells (electroporation, qRT-PCR RTS3559, IC50); assay type: cell-based; conditions: HuVEC
Outline: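 HuVEC cells dosed with antisense oligonucleotides by electroporation and treated approximately 16 hours. AR mRNA quantified by real-time qPCR with primer probe set RTS3559 and normalised to total RNA by RIBOGREEN; IC50 from dose-response.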

[3] = Table 36, electroporation, approximately 16 hours
[4] = Table 33, electroporation, approximately 16 hours
[5] = Table 31, electroporation, approximately 16 hours
[6] = Table 35, electroporation, approximately 16 hours
[7] = Table 34, electroporation, approximately 16 hours

569215 (antisense kT*kG*kG*dT*dT*dG*dA*dT*dT*dT*dA*dA*kT*kG*kG*eT) [compound 569215]
% inhibition (AR mRNA [1]; 1,000 nM ASO, ~24 h, Table 13): 59%
percent inhibition of AR (AR mRNA [2]; 31.25 nM, ~16 h, Table 14): 12%
percent inhibition of AR (AR mRNA [2]; 62.5 nM, ~16 h, Table 14): 2%
percent inhibition of AR (AR mRNA [2]; 125.0 nM, ~16 h, Table 14): 26%
percent inhibition of AR (AR mRNA [2]; 500.0 nM, ~16 h, Table 14): 71%
percent inhibition of AR (AR mRNA [2]; 1000.0 nM, ~16 h, Table 14): 90%
IC50 (AR mRNA [2]; ~16 h, Table 14): 234 nM

584361 (k[5mC]*kT*kT*d[5mC]*dA*dT*dT*dG*d[5mC]*dA*dG*dG*dT*k[5mC]*kT*kG; antisense) [compound 584361]
% inhibition (AR mRNA [1]; 1,000 nM ASO, ~24 h, Table 26): 61%
percent inhibition of AR, 46.9 nM (AR mRNA [2]; [3]): 0%
percent inhibition of AR, 187.5 nM (AR mRNA [2]; [3]): 18%
percent inhibition of AR, 750.0 nM (AR mRNA [2]; [3]): 71%
percent inhibition of AR, 3000.0 nM (AR mRNA [2]; [3]): 87%
IC50 (AR mRNA [2]; [3]): 410 nM

583969 (k[5mC]*k[5mC]*kT*dT*d[5mC]*dT*dT*d[5mC]*dG*dG*d[5mC]*dT*dG*kT*kG*kA; antisense) [compound 583969]
% inhibition (AR mRNA [1]; Table 21, 500 nM oligonucleotide, electroporation, approximately 24 hours, relative to untreated control): 44%
percent inhibition of AR, 46.9 nM (AR mRNA [2]; [4]): 12%
percent inhibition of AR, 187.5 nM (AR mRNA [2]; [4]): 26%
percent inhibition of AR, 750.0 nM (AR mRNA [2]; [4]): 66%
percent inhibition of AR, 3000.0 nM (AR mRNA [2]; [4]): 86%
IC50 (AR mRNA [2]; [4]): 440 nM

560132 (antisense kG*kT*kT*dG*dA*dT*dT*dT*dA*dA*dT*dG*kG*kT*kT*eG) [compound 560132]
% inhibition (AR mRNA [1]; 1,000 nM ASO, ~24 h, Table 13): 58%
percent inhibition of AR (AR mRNA [2]; 31.25 nM, ~16 h, Table 14): 8%
percent inhibition of AR (AR mRNA [2]; 62.5 nM, ~16 h, Table 14): 19%
percent inhibition of AR (AR mRNA [2]; 125.0 nM, ~16 h, Table 14): 21%
percent inhibition of AR (AR mRNA [2]; 500.0 nM, ~16 h, Table 14): 65%
percent inhibition of AR (AR mRNA [2]; 1000.0 nM, ~16 h, Table 14): 85%
IC50 (AR mRNA [2]; ~16 h, Table 14): 252 nM

583821 (k[5mC]*kA*kG*dA*dA*dA*dT*dG*dG*dT*d[5mC]*dG*dA*kA*kG*kT) [compound 583821]
% inhibition (AR mRNA [1]; Table 19, 500 nM oligonucleotide, electroporation, approximately 24 hours, relative to untreated control): 42%
percent inhibition of AR, 46.9 nM (AR mRNA [2]; [5]): 11%
percent inhibition of AR, 187.5 nM (AR mRNA [2]; [5]): 35%
percent inhibition of AR, 750.0 nM (AR mRNA [2]; [5]): 61%
percent inhibition of AR, 3000.0 nM (AR mRNA [2]; [5]): 77%
IC50 (AR mRNA [2]; [5]): 460 nM

584111 (kG*kT*kT*dT*dT*d[5mC]*dA*dA*dA*dT*dG*d[5mC]*dA*kG*k[5mC]*k[5mC]; antisense) [compound 584111]
% inhibition (AR mRNA [1]; Table 23, 500 nM oligonucleotide, electroporation, approximately 24 hours, relative to untreated control): 33%
percent inhibition of AR, 46.9 nM (AR mRNA [2]; [6]): 22%
percent inhibition of AR, 187.5 nM (AR mRNA [2]; [6]): 30%
percent inhibition of AR, 750.0 nM (AR mRNA [2]; [6]): 59%
percent inhibition of AR, 3000.0 nM (AR mRNA [2]; [6]): 84%
IC50 (AR mRNA [2]; [6]): 330 nM

569223 (antisense eG*eT*kT*kG*kA*dT*dT*dT*dA*dA*dT*dG*dG*kT*kT*kG) [compound 569223]
% inhibition (AR mRNA [1]; 1,000 nM ASO, ~24 h, Table 13): 59%
percent inhibition of AR (AR mRNA [2]; 31.25 nM, ~16 h, Table 14): 21%
percent inhibition of AR (AR mRNA [2]; 62.5 nM, ~16 h, Table 14): 20%
percent inhibition of AR (AR mRNA [2]; 125.0 nM, ~16 h, Table 14): 30%
percent inhibition of AR (AR mRNA [2]; 500.0 nM, ~16 h, Table 14): 73%
percent inhibition of AR (AR mRNA [2]; 1000.0 nM, ~16 h, Table 14): 87%
IC50 (AR mRNA [2]; ~16 h, Table 14): 191 nM

584044 (k[5mC]*k[5mC]*k[5mC]*dT*dT*d[5mC]*dA*dG*d[5mC]*dG*dG*d[5mC]*dT*k[5mC]*kT*kT; antisense) [compound 584044]
% inhibition (AR mRNA [1]; Table 22, 500 nM oligonucleotide, electroporation, approximately 24 hours, relative to untreated control): 29%
percent inhibition of AR, 46.9 nM (AR mRNA [2]; [7]): 23%
percent inhibition of AR, 187.5 nM (AR mRNA [2]; [7]): 30%
percent inhibition of AR, 750.0 nM (AR mRNA [2]; [7]): 51%
percent inhibition of AR, 3000.0 nM (AR mRNA [2]; [7]): 78%
IC50 (AR mRNA [2]; [7]): 440 nM

584166 (k[5mC]*kA*k[5mC]*dA*dT*d[5mC]*dA*dG*dA*dA*dG*dG*dA*kG*kT*kA; antisense) [compound 584166]
% inhibition (AR mRNA [1]; Table 24, 1,000 nM oligonucleotide, electroporation, approximately 24 hours, relative to untreated control): 89%
percent inhibition of AR, 46.9 nM (AR mRNA [2]; [6]): 34%
percent inhibition of AR, 187.5 nM (AR mRNA [2]; [6]): 52%
percent inhibition of AR, 750.0 nM (AR mRNA [2]; [6]): 84%
percent inhibition of AR, 3000.0 nM (AR mRNA [2]; [6]): 92%
IC50 (AR mRNA [2]; [6]): 100 nM
